Where two headings read alike, the source gives them in different places.
How the values were obtained:
[1] = test system: HIV-1; experiment: HIV-1 syncytial plaque assay in CEM-SS cells; format: cell-based
Description: (§1) The inhibitory effects of PC lipids, non-PC lipid-AZT conjugates, and double-targeting PC lipid-AZT conjugate compounds of the invention on replication of HIV-1 virus in cells was examined using the plaque assay procedure described in Kucera et al. (1990, AIDS Research and Human Retroviruses, 6:491). CEM-SS cells were seeded at 50,000 cells per milliliter in RPMI growth medium as a monolayer in 96-well dishes, inoculated with 50 to 100 plaque forming units of HIV-1 and overlaid with serial dilutions of either PC lipid, non-PC lipid-AZT conjugate, or PC-lipid-AZT conjugate in RPMI-1640 growth medium supplemented with 10% fetal bovine serum. The structures of the tested compounds are described in Table 1. AZT and PC lipids were used as positive controls. […] The cytotoxicity of PC lipids, non-PC lipid-AZT conjugates and double targeting PC lipid-AZT conjugates was assessed using the procedure described in Kucera et al. (1990, AIDS Res. And Human Retrovir., 6:496, and 1998, Antiviral Chemistry and Chemotherapy, 9:160). [drawing 16]
In the plaque assay, HIV-1 syncytial plaques are seen as large, multicellular foci (10 to 25 nuclei/syncytium) that appear either brown and granular or clear. Because the number of HIV-1 syncytial plaques was correlated with reverse transcriptase (RT) and p24 core antigen activity in the HIV-1 infected cell overlay fluids, the syncytial plaque assay could be used to quantify the amount of infectious virus. Reverse transcriptase activity was assayed according to the procedure described by Poeisz et al. (1980, Proc. Natl. Acad. Sci. U.S.A. 77:7415). The activity of p24 core antigen induced by HIV-1 infection of CEM-SS cells was measured spectrophotometrically using the commercial Coulter enzyme immunoassay (EIA).

[2] = test system: CEM-SS cells; experiment: Cytotoxicity (TC50) of the compounds tested for anti-HIV-1 activity; format: cell-based, human
Description: as §1

[3] = Oral administration of phospholipid-AZT conjugate in rodents (distribution, half-life); set-up: species or system rodents (mice); settings: mouse, in vivo
[4] = test system: human lymphocytes; experiment: Metabolism of conjugate in human lymphocytes in tissue culture; format: in vitro ADME
Description: In another set of experiments the metabolism of the compound BM21-1290 using human lymphocytes in tissue culture was assessed. […] The predominant AZT species was AZT-MP with lesser amounts of AZT-DP, AZT-TP and AZT. […] AZT-MP can be activated to AZT-TP the inhibitor of HIV-1 induced reverse transcriptase.

[5] = test system: Friend leukemia virus; settings: cited from earlier work
[6] = test system: AZT-resistant clinical isolates of HIV-1; experiment: microbe, parasite or virus in culture; format: cell-based; settings: for Fold-Increase (G-762 to G-691): post-AZT G-691 versus pre-AZT G-762; for Fold-Increase (H112-2 to G-910): post-AZT G-910 versus pre-AZT H112-2; for EC50: mean of 2 to 4 independent tests
Description: as §1
Evaluation of the clinical isolates to the compounds was performed using the plaque assay procedure described herein in Example 1. The matched pairs of clinical isolates were obtained through the AIDS Research and Reference Reagent Program, NIH, Bethesda, Md.

[7] = test system: herpes simplex virus type 2; experiment: Herpes simplex virus type 2 plaque inhibition in Vero cells; format: cell-based
Description: Proof-of-concept of the antiviral activity of the double-targeting PC lipid-AZT conjugate compounds of the invention with respect to herpes simplex virus type 2 was evaluated and compared with that of PC lipid alone and with acyclovir (positive controls). Serial dilutions of PC lipid, PC lipid-AZT conjugate compound, or acyclovir were evaluated for inhibition of the formation of herpes simplex virus type 2 plaques in Vero cells and EC50 values were calculated from the results obtained. Briefly, the tests for anti-herpes simplex virus (HSV) activity and cytotoxicity of the compounds were performed by seeding 8×10^4 monkey kidney cells (Vero) per ml of D-MEM with 10% fetal bovine serum (FBS) in each well of a 12-well dish. The cultures were incubated at 37° C. to form a complete monolayer. To measure anti-HSV activity and effective concentration50 (EC50) each cell monolayer was infected with HSV diluted in PBS-A containing about 100 plaque forming units (PFU) per 0.1 ml. After virus attachment (1 hr., 37° C.) the infected monolayers were overlaid with E-MEM containing 2% FBS and 0.5% methyl cellulose with or without added serial concentrations of test compound. […] The EC50 values were calculated using a computer generated program.

[8] = test system: monkey kidney cells (Vero); experiment: Cytotoxicity in Vero cell monolayers (cell morphology); format: cell-based; settings: 48 hours at 37° C., lowest concentration changing morphology in at least 25% of the cells; for CC50: read-out: Cytotoxicity (TC50)
Description: To measure cytotoxicity of the compounds, the cell monolayers (described above) were treated with a serial concentration of test compound for 48 hours at 37° C. and visually examined after crystal violet staining by light microscopy for changes in cell morphology (cell rounding, shrinking, detachment) compared to an untreated control culture.

[9] = test system: HIV-1 persistently infected H9IIIB cells; experiment: Induction of defective HIV-1 in persistently infected H9IIIB cells (RT activity after infecting fresh CEM-SS cells); format: cell-based; settings: for DPM-Bkg: RT activity in CEM-SS overlay medium after 7 or 9 days, H9IIIB cells treated with 1.0 μM compound for 14 or 11 days; for % Inhibition: inhibition of RT activity as measure of defective virus formation, 1.0 μM compound, 14 or 11 days
Description: HIV-1 persistently infected H9IIIB cells were washed twice to remove extracellular HIV-1, resuspended in fresh growth medium with or without 1.0 μM of compound for a total of 14 days. During the treatment period, the cells were subcultured 1:3 three times a week. In addition, on days 3, 7 and 11, the cells were pelleted to remove extracellular HIV-1 before subculture in fresh growth medium with or without the compound. After 14 or 11 days of treatment, the virus was pelleted (100,000×g, 1 hr, 4 C.) from the overlay medium to remove free compound, resuspended in fresh medium without compound and assayed for RT activity. The virus suspension was normalized to 500,000 RT DPM and used to infect fresh CEM-SS cells. The infected CEM-SS cells were incubated for a total of 7 or 9 days, and the overlay medium was harvested and assayed for induction of RT activity. The % inhibition of RT activity was used as a measure of defective virus formation during the treatment period.

[10] = plaques counted after five days at 37° C., CEM-SS cells, read-out: Anti-HIV-1 Activity (EC50)
[11] = post-AZT isolate, patient code G-691, read-out: EC50 Post-AZT G-691
[12] = post-AZT isolate, patient code G-910, read-out: EC50 Post-AZT G-910
[13] = pre-AZT isolate, patient code G-762, read-out: EC50 Pre-AZT G-762
[14] = pre-AZT isolate, patient code H112-2, read-out: EC50 Pre-AZT H112-2
[15] = Vero cells, 2 days at 37° C., replicate values in one cell, read-out: Anti-Herpes Simplex Activity (EC50)
[16] = acyclovir in replicate tests, read-out: EC50 against herpes simplex virus type 2

| Compound | EC50 [1, 10] | CC50 ([2]; read-out: Cytotoxicity (TC50)) | Fold-Increase (G-762 to G-691) [6] | Fold-Increase (H112-2 to G-910) [6] | EC50 [6, 11] | EC50 [6, 12] | EC50 [6, 13] | EC50 [6, 14] | EC50 [7, 15] | Cytotoxicity (TC50) [8] | DPM-Bkg [9] | % Inhibition [9] | CC50 [8] | also measured |
| --- | --- | --- | --- | --- | --- | --- | --- | --- | --- | --- | --- | --- | --- | --- |
| CCCCCCCCCCCCSCC(COP(=O)(O)OCC1OC(n2cc(C)c(=O)[nH]c2=O)CC1N=[N+]=[N-])OCCCCCCCCCC (stereo not drawn) [BM21-1290] | 0.02 µM | 38.5 µM | – | – | – | – | – | – | – | – | – | – | – | free AZT in the plasma [3]: little or no detectable free AZT in the plasma; half-life [3]: 48 h; tissue uptake [3]: preferentially taken up into lymphoid tissues (lymphoma, spleen and thymus); concentration in the brain versus plasma ([3]; po): equivalent to the concentration of BM21-1290 in the plasma; oral bioavailability ([3]; po): orally bioavailable; intracellular metabolism [4]: metabolized to form an alkyl-lipid plus a phosphorylated species of AZT |
| CCCCCCCCCCOC(CNC(=O)CCCCCCCCC)COP(=O)([O-])OCC[N+](C)(C)C (stereo not drawn) [INK-11, 1-decanamido-2-decyloxypropyl-3-phosphocholine] | – | – | – | – | – | – | – | – | – | – | – | – | – | inhibition of FLV-induced pathogenesis (splenomegaly) ([5]; 50 milligrams per kilogram of body weight per day for 21 days, infected mice): 42%; suppression against RT activity ([5]; INK-11 compared with AZT alone): 42% |
| CCCCCCCCCCCCSCC(COP(=O)([O-])OCC[N+](C)(C)C)OCCCCCCCCOCc1ccccc1 (stereo not drawn) [INK-17, 3-dodecylthio-2-(8′-benzyloxyoctyloxy)propyl phosphocholine] | 0.15 ± 0.13 µM | – | 0 | 5.1 | 0.18 µM | 0.2 µM | 0.26 µM | 0.04 µM | > 4 µM | toxic @ 4 | 2847 DPM | 58% | – | CC50 [2]: 49.1 ± 13.2 µM |
| CCCCCCCCCCCCSCC(COP(=O)([O-])OCC[N+](C)(C)C)OCCCCCCCCO (stereo not drawn) [INK-18, 3-dodeceylthio-2-(8′-hydroxyoctyloxy)propyl phosphophocholine] | 1.92 ± 1.8 µM | 50 ± 42 µM | 0 | 1.8 | 0.6 µM | 1.04 µM | > 1.06 µM | 0.56 µM | – | – | 4195 DPM | 38% | – | – |
| CCCCCCCCCCCCSCC(COC(=O)CC(=O)OC[C@H]1O[C@@H](n2cc(C)c(=O)[nH]c2=O)C[C@@H]1N=[N+]=[N-])OC (stereo partly drawn) [INK-19] | 0.006 ± 0.001 µM | 6.3 ± 1.1 µM | 13.5 | >55.6 | 1.62 µM | > 1.7 µM | 0.12 µM | 0.03 µM | > 20 µM | – | 2508 DPM | 63% | > 20 µM | – |
| CCCCCCCCCCCCSCC(COP(=O)([O-])OCC[N+](C)(C)C)OCCCCCCCCC(=O)OCC(=O)OC[C@H]1O[C@@H](n2cc(C)c(=O)[nH]c2=O)C[C@@H]1N=[N+]=[N-] (stereo partly drawn) [INK-20] | – | 6.9 ± 0.6 µM | 18.6 | 22.0 | 0.74 µM | 0.44 µM | 0.04 µM | 0.02 µM | > 20 µM | toxic @ 20 | 2455 DPM | 64% | – | anti-HIV-1 activity relative to AZT ([1]; compared with AZT): more than ten-fold higher than AZT; EC50 ([1]; read-out: anti-HIV-1 activity): 0.0009 µM; cytotoxicity [2]: 6.9 ± 0.6 µM; fold increase in AZT-resistance among HIV-1 clinical isolates ([6]; text summary over both isolate pairs): about 20 fold |
| CCCCCCCCCCCCSCC(COP(=O)([O-])OCC[N+](C)(C)C)OCCCCCCCCCCOCc1ccccc1 (stereo not drawn) [INK-21] | 1.5 ± 0.23 µM | 57.3 ± 10.8 µM | – | – | – | – | – | – | > 20 µM | toxic @ 20 | – | – | – | – |
| CCCCCCCCCCCCSCC(COP(=O)([O-])OCC[N+](C)(C)C)OCCCCCCCCCCO (stereo not drawn) [INK-22] | 0.39 ± 0.31 µM | > 90.5 µM | – | – | – | – | – | – | > 20 µM | toxic @ 20 | – | – | – | – |
| CCCCCCCCCCCCSCC(COP(=O)([O-])OCC[N+](C)(C)C)OCCCCCCCCCCCCOCc1ccccc1 (stereo not drawn) [INK-23] | > 1.46 µM | > 100 µM | – | – | – | – | – | – | > 20 µM | – | – | – | > 20 µM | – |
| CCCCCCCCCCCCSCC(COP(=O)([O-])OCC[N+](C)(C)C)OCCCCCCCCCCCCO (stereo not drawn) [INK-24] | 0.39 ± 0.39 µM | 80.6 ± 6.2 µM | 0 | <1.0 | 0.08 µM | 0.25 µM | 0.19 µM | 0.37 µM | 13.9 µM | – | 3087 DPM | 33% | > 20 µM | EC50 [7, 16]: 13.8 µM |
| CCCCCCCCCCCCSCC(COP(=O)([O-])OCC[N+](C)(C)C)OCCCCCCCCCCOC(=O)CC(=O)OC[C@H]1O[C@@H](n2cc(C)c(=O)[nH]c2=O)C[C@@H]1N=[N+]=[N-] (stereo partly drawn) [INK-25] | 0.02 ± 0.01 µM | 13.6 µM | 2 | 2.5 | 0.06 µM | 0.01 µM | 0.03 µM | 0.004 µM | > 20 µM | toxic @ 20 | 2140 DPM | 54% | – | – |
| CCCCCCCCCCCCSCC(COP(=O)([O-])OCC[N+](C)(C)C)OCCCCCCCCCCCCOC(=O)CC(=O)OC[C@H]1O[C@@H](n2cc(C)c(=O)[nH]c2=O)C[C@@H]1N=[N+]=[N-] (stereo partly drawn) [INK-26] | 0.02 ± 0.02 µM | 11.6 µM | 20 | 1.5 | 0.06 µM | 0.03 µM | 0.003 µM | 0.02 µM | – | – | 1793 DPM | 61% | > 20 µM | EC50 [7, 16]: 12 µM |

Reference: patent US7026469B2, “Compositions and methods of double-targeting virus infections and cancer cells” (Wake Forest University School of Medicine, priority 2000, dated 2006)
